Assay type in all cases: cell-based
Experiment [1] concerns Streptococcus pyogenes C203. Put plainly: MIC, standard broth micro-dilution assay, SPY C203. Set-up: unit not given here. Here is the method: (§1) The antibacterial efficacy of the present compounds is illustrated by Table II. The minimal inhibitory concentrations (MICs) were determined using a standard broth micro-dilution assay.
The test system of experiment [2] is Enterococcus faecium and faecalis (RESISTANT). As to conditions: geometric mean of 4-6 isolates. Here is the method:
as §1

Experiment [3] has as its system Staphylococcus aureus 446. In words: MIC, standard broth micro-dilution assay, SA 446. Set-up: unit not given here. Here is the method:
as §1
On the technique in general: Broth dilution looks for growth in wells or tubes with falling amounts of substance.

For experiment [4], the system named is Staphylococcus aureus 447. In words: MIC, standard broth micro-dilution assay, SA 447. The arrangement: unit not given here. Here is the method:
as §1

Experiment [5] has as its system Staphylococcus epidermidis 270. Put plainly: MIC, standard broth micro-dilution assay, SE 270. The arrangement: unit not given here. Here is the method:
as §1

The subject of experiment [6] is Staphylococcus haemolyticus 415. In words: MIC, standard broth micro-dilution assay, SH 415. The arrangement: unit not given here. Here is the method:
as §1

In experiment [7] the test system is Staphylococcus aureus 489. In words: MIC, standard broth micro-dilution assay, SA 489. The arrangement: unit not given here. Here is the method:
as §1

Experiment [8] deals with Staphylococcus haemolyticus 105. In words: MIC, standard broth micro-dilution assay, SH 105. The arrangement: unit not given here. Here is the method:
as §1

In experiment [9] the test system is Enterococcus faecium and faecalis (SENSITIVE). Put plainly: MIC, standard broth micro-dilution assay, SENSITIVE enterococci. The arrangement: unit not given here. As to conditions: geometric mean of 4-6 isolates. Here is the method: as §1
Experiment [10] has as its system Streptococcus pneumoniae P1. In words: MIC, standard broth micro-dilution assay, SPN P1. The arrangement: unit not given here. Here is the method: as §1

The structures appear in SMILES notation. Bounds are passed on as bounds.

For the molecule `C[C@@H]1O[C@@H](O[C@H]2[C@H](Oc3c4cc5cc3Oc3ccc(cc3Cl)[C@@H](O[C@H]3C[C@](C)(N)[C@@H](O)[C@H](C)O3)[C@@H]3NC(=O)[C@H](NC(=O)[C@@H]5NC(=O)[C@H](CC(N)=O)NC(=O)[C@H](NCc5ccc(OCCCc6ccccc6)cc5)[C@H](O)c5ccc(c(Cl)c5)O4)c4ccc(O)c(c4)-c4c(O)cc(O)cc4[C@@H](C(=O)O)NC3=O)O[C@H](CO)[C@@H](O)[C@@H]2O)C[C@](C)(N)[C@H]1O` [Example 21, N^1 -(p-(3-PHENYL-n-PROPOXY)BENZYL)DESLEUCYL-A82846B], the “Minimal Inhibitory Concentration (MIC) SPY C203” value in experiment [1] is recorded as “≤ .06”. Also, the “Minimal Inhibitory Concentration (MIC) RESISTANT” value in [2] is listed as greater than 128. The “Minimal Inhibitory Concentration (MIC) SA 446” value in experiment [3] worked out at 4. For the same molecule, in experiment [4], the “Minimal Inhibitory Concentration (MIC) SA 447” value is listed as 4. The “Minimal Inhibitory Concentration (MIC) SE 270” value in [5] is given as 4. In experiment [6], the “Minimal Inhibitory Concentration (MIC) SH 415” value came to 8. Further, the “Minimal Inhibitory Concentration (MIC) SA 489” value in experiment [7] was found to be 4. Moreover, in [8], the “Minimal Inhibitory Concentration (MIC) SH 105” value stood at 4. The “Minimal Inhibitory Concentration (MIC) SENSITIVE” value in experiment [9] was found to be 32. For the same molecule, the “Minimal Inhibitory Concentration (MIC) SPN P1” value in experiment [10] is recorded as “≤ .06”.

For the molecule `C[C@@H]1O[C@@H](O[C@H]2[C@H](Oc3c4cc5cc3Oc3ccc(cc3Cl)[C@@H](O[C@H]3C[C@](C)(N)[C@@H](O)[C@H](C)O3)[C@@H]3NC(=O)[C@H](NC(=O)[C@@H]5NC(=O)[C@H](CC(N)=O)NC(=O)[C@H](NCc5ccc(-c6ccccc6)cc5)[C@H](O)c5ccc(c(Cl)c5)O4)c4ccc(O)c(c4)-c4c(O)cc(O)cc4[C@@H](C(=O)O)NC3=O)O[C@H](CO)[C@@H](O)[C@@H]2O)C[C@](C)(N)[C@H]1O` [Example 3, N^1- (p-PHENYLBENZYL)-DESLEUCYL-A82846B], the “Minimal Inhibitory Concentration (MIC) SPY C203” value in experiment [1] is on record as “≤ .06”. Moreover, the “Minimal Inhibitory Concentration (MIC) RESISTANT” value in experiment [2] is greater than 128. Also, the “Minimal Inhibitory Concentration (MIC) SA 446” value in experiment [3] worked out at 8. Also, the “Minimal Inhibitory Concentration (MIC) SA 447” value in [4] stood at 8. Further, the “Minimal Inhibitory Concentration (MIC) SE 270” value in [5] was 8. For the same molecule, the “Minimal Inhibitory Concentration (MIC) SH 415” value in experiment [6] is given as 16. The “Minimal Inhibitory Concentration (MIC) SA 489” value in [7] worked out at 8. Besides, in experiment [8], the “Minimal Inhibitory Concentration (MIC) SH 105” value is recorded as 8. The “Minimal Inhibitory Concentration (MIC) SENSITIVE” value in experiment [9] stood at 21. In addition, in experiment [10], the “Minimal Inhibitory Concentration (MIC) SPN P1” value is given as “≤ .06”.

For the molecule `CCCCCCCCOc1ccc(CN[C@H]2C(=O)N[C@@H](CC(N)=O)C(=O)N[C@H]3C(=O)N[C@H]4C(=O)N[C@H](C(=O)N[C@H](C(=O)O)c5cc(O)cc(O)c5-c5cc4ccc5O)[C@H](O[C@H]4C[C@](C)(N)[C@@H](O)[C@H](C)O4)c4ccc(c(Cl)c4)Oc4cc3cc(c4O[C@@H]3O[C@H](CO)[C@@H](O)[C@H](O)[C@H]3O[C@H]3C[C@](C)(N)[C@@H](O)[C@H](C)O3)Oc3ccc(cc3Cl)[C@H]2O)cc1` [Example 23, N^1 -(p-(n-OCTYLOXY)-BENZYL)DESLEUCYL-A82846B], in experiment [1], the “Minimal Inhibitory Concentration (MIC) SPY C203” value worked out at 0.25. Besides, the “Minimal Inhibitory Concentration (MIC) RESISTANT” value in experiment [2] is reported as 11. Also, the “Minimal Inhibitory Concentration (MIC) SA 446” value in experiment [3] is 8. In addition, the “Minimal Inhibitory Concentration (MIC) SA 447” value in experiment [4] was 4. Moreover, in experiment [5], the “Minimal Inhibitory Concentration (MIC) SE 270” value is 4. Also, the “Minimal Inhibitory Concentration (MIC) SH 415” value in experiment [6] turned out to be 8. In experiment [7], the “Minimal Inhibitory Concentration (MIC) SA 489” value is on record as 4. In addition, the “Minimal Inhibitory Concentration (MIC) SH 105” value in experiment [8] was determined as 4. The “Minimal Inhibitory Concentration (MIC) SENSITIVE” value in experiment [9] stood at 9.2. Besides, in experiment [10], the “Minimal Inhibitory Concentration (MIC) SPN P1” value worked out at 1.

As for `C[C@@H]1O[C@@H](O[C@H]2[C@H](Oc3c4cc5cc3Oc3ccc(cc3Cl)[C@@H](O[C@H]3C[C@](C)(NCc6ccccc6)[C@@H](O)[C@H](C)O3)[C@@H]3NC(=O)[C@H](NC(=O)[C@@H]5NC(=O)[C@H](CC(N)=O)NC(=O)[C@H](NCc5ccccc5)[C@H](O)c5ccc(c(Cl)c5)O4)c4ccc(O)c(c4)-c4c(O)cc(O)cc4[C@@H](C(=O)O)NC3=O)O[C@H](CO)[C@@H](O)[C@@H]2O)C[C@](C)(NCc2ccc(-c3ccccc3)cc2)[C@H]1O` [Example 6, N^1,N^MONOSACC -DIBENZYL-N^DISACC -(p-PHENYLBENZYL)-DESLEUCYL-A82846B], the “Minimal Inhibitory Concentration (MIC) SPY C203” value in experiment [1] was 0.125. The “Minimal Inhibitory Concentration (MIC) RESISTANT” value in experiment [2] is on record as 16. Further, the “Minimal Inhibitory Concentration (MIC) SA 446” value in experiment [3] is 2. Moreover, the “Minimal Inhibitory Concentration (MIC) SA 447” value in experiment [4] was 2. The “Minimal Inhibitory Concentration (MIC) SE 270” value in experiment [5] amounted to 0.5. Besides, the “Minimal Inhibitory Concentration (MIC) SH 415” value in experiment [6] was determined as 1. Further, the “Minimal Inhibitory Concentration (MIC) SA 489” value in experiment [7] is recorded as 2. The “Minimal Inhibitory Concentration (MIC) SH 105” value in experiment [8] is 0.5. Besides, the “Minimal Inhibitory Concentration (MIC) SENSITIVE” value in experiment [9] is given as 6.1. Further, the “Minimal Inhibitory Concentration (MIC) SPN P1” value in experiment [10] is 0.5.

On to `CCCCCCN[C@H]1C(=O)N[C@@H](CC(N)=O)C(=O)N[C@H]2C(=O)N[C@H]3C(=O)N[C@H](C(=O)N[C@H](C(=O)O)c4cc(O)cc(O)c4-c4cc3ccc4O)[C@H](O[C@H]3C[C@](C)(NCCCCCC)[C@@H](O)[C@H](C)O3)c3ccc(c(Cl)c3)Oc3cc2cc(c3O[C@@H]2O[C@H](CO)[C@@H](O)[C@H](O)[C@H]2O[C@H]2C[C@](C)(NCCCCCC)[C@@H](O)[C@H](C)O2)Oc2ccc(cc2Cl)[C@H]1O` [Example 8, N^1,N^DISACC,N^MONOSACC -TRI-n-HEXYLDESLEUCYL-A82846B], for which the “Minimal Inhibitory Concentration (MIC) SPY C203” value in [1] was determined as 1. In experiment [2], the “Minimal Inhibitory Concentration (MIC) RESISTANT” value was determined as 76. Further, the “Minimal Inhibitory Concentration (MIC) SA 446” value in [3] is 16. Besides, the “Minimal Inhibitory Concentration (MIC) SA 447” value in [4] came out at 8. Also, the “Minimal Inhibitory Concentration (MIC) SE 270” value in experiment [5] is 8. The “Minimal Inhibitory Concentration (MIC) SH 415” value in [6] was found to be 16. For the same molecule, in experiment [7], the “Minimal Inhibitory Concentration (MIC) SA 489” value is recorded as 8. In [8], the “Minimal Inhibitory Concentration (MIC) SH 105” value is 4. Also, in [9], the “Minimal Inhibitory Concentration (MIC) SENSITIVE” value was 55. Further, the “Minimal Inhibitory Concentration (MIC) SPN P1” value in [10] turned out to be 2.

Turning to `C[C@@H]1O[C@@H](O[C@@H]2c3ccc(c(Cl)c3)Oc3cc4cc(c3O[C@@H]3O[C@H](CO)[C@@H](O)[C@H](O)[C@H]3O[C@H]3C[C@](C)(NCc5ccc(O)cc5)[C@@H](O)[C@H](C)O3)Oc3ccc(cc3Cl)[C@@H](O)[C@@H](NCc3ccc(O)cc3)C(=O)N[C@@H](CC(N)=O)C(=O)N[C@H]4C(=O)N[C@H]3C(=O)N[C@@H]2C(=O)N[C@H](C(=O)O)c2cc(O)cc(O)c2-c2cc3ccc2O)C[C@](C)(N)[C@H]1O` [Example 9, N^1,N^DISACC -BIS(p-HYDROXYBENZYL)-DESLEUCYL-A82846B], the “Minimal Inhibitory Concentration (MIC) SPY C203” value in [1] amounted to 16. In [2], the “Minimal Inhibitory Concentration (MIC) RESISTANT” value was greater than 128. The “Minimal Inhibitory Concentration (MIC) SA 446” value in [3] is given as 16. The “Minimal Inhibitory Concentration (MIC) SA 447” value in experiment [4] was found to be 16. For the same molecule, the “Minimal Inhibitory Concentration (MIC) SE 270” value in [5] worked out at 32. Also, the “Minimal Inhibitory Concentration (MIC) SH 415” value in experiment [6] is recorded as 32. Moreover, the “Minimal Inhibitory Concentration (MIC) SA 489” value in [7] came out at 16. The “Minimal Inhibitory Concentration (MIC) SH 105” value in experiment [8] is reported as 32. Moreover, in experiment [9], the “Minimal Inhibitory Concentration (MIC) SENSITIVE” value is greater than 128. In addition, the “Minimal Inhibitory Concentration (MIC) SPN P1” value in experiment [10] worked out at 32.

The record behind these values is patent publication US5977063A, “Alkylated hexapeptides” (Eli Lilly and Company, priority 1998, dated 1999).
